Results: ChEMBL document CHEMBL3526061, “Glucuronidation of edaravone by human liver and kidney microsomes: biphasic kinetics and identification of UGT1A9 as the major UDP-glucuronosyltransferase isoform” (Drug Metab Dispos, 2012)

How the values were obtained:
Type in all cases: ADME
Liver microsome [1] = test: Drug metabolism in human liver microsomes assessed as drug glucuronidation in presence of 5 to 35 uM androsterone by LC-MS/MS method
Liver microsome [2] = test: Drug metabolism in human liver microsomes assessed as drug glucuronidation in presence of 100 to 1000 uM propofol by LC-MS/MS method
[3] = molecular target: T1, UDP-glucuronosyltransferase 1A9 (Homo sapiens, UniProt O60656); test: Activity of human recombinant UGT1A9 expressed in insect cells assessed as enzyme mediated glucuronidation by LC-MS/MS method
T1 sequence (O60656 whole entry): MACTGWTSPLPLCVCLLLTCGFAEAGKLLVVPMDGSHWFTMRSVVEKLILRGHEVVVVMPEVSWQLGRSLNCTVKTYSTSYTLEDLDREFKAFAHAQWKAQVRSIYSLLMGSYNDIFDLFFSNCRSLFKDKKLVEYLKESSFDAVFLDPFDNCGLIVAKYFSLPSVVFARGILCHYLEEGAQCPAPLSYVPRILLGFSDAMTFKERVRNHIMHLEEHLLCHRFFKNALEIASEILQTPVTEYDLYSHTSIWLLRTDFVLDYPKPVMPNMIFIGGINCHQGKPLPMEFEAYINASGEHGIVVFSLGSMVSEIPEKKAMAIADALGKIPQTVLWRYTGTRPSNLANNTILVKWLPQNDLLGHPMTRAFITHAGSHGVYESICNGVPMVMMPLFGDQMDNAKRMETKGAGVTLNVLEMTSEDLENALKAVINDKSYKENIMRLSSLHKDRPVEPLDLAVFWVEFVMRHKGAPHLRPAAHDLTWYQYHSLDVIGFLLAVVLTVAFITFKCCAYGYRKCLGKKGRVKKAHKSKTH

[4] = Drug metabolism in human kidney microsomes assessed as drug glucuronidation in presence of 100 to 1000 uM propofol by LC-MS/MS method
[5] = molecular target: T1, UDP-glucuronosyltransferase 1A9; test: Activity of human recombinant UGT1A9 expressed in insect cells assessed as enzyme mediated glucuronidation at 500 uM by LC-MS/MS method
[6] = molecular target: T1, UDP-glucuronosyltransferase 1A9; test: Activity of human recombinant UGT1A9 expressed in insect cells assessed as enzyme mediated glucuronidation at 12.5 uM by LC-MS/MS method
[7] = Drug metabolism in human kidney microsomes assessed as drug glucuronidation in absence of BSA by LC-MS/MS method
[8] = molecular target: T2, UDP-glucuronosyltransferase 2B7 (Homo sapiens, UniProt P16662); test: Activity of human recombinant UGT2B7 expressed in insect cells assessed as intrinsic clearance for enzyme mediated glucuronidation per mg protein by LC-MS/MS method
T2 sequence (P16662 whole entry): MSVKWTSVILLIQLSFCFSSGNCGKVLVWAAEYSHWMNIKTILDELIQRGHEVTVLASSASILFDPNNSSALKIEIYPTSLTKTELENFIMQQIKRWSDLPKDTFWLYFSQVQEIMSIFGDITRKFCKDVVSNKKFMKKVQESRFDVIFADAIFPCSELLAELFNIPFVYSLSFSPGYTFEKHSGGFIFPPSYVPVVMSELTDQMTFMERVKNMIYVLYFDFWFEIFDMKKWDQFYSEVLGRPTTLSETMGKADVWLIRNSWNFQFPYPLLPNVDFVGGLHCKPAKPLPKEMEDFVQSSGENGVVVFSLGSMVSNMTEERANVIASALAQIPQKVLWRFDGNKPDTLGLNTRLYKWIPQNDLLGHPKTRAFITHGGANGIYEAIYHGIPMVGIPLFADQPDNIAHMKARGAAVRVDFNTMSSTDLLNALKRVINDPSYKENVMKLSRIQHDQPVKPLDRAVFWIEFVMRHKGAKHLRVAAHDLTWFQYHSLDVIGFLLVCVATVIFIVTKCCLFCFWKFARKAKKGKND

[9] = Drug metabolism in human kidney microsomes assessed as drug glucuronidation per mg tissue in presence of BSA by LC-MS/MS method
Liver microsome [10] = test: Drug metabolism in human liver microsomes assessed as drug glucuronidation per mg tissue in presence of BSA by LC-MS/MS method
[11] = molecular target: T3, UDP-glucuronosyltransferase 1A7 (Homo sapiens, UniProt Q9HAW7); test: Activity of human recombinant UGT1A7 expressed in insect cells assessed as enzyme mediated glucuronidation at 500 uM by LC-MS/MS method
T3 sequence (Q9HAW7 whole entry): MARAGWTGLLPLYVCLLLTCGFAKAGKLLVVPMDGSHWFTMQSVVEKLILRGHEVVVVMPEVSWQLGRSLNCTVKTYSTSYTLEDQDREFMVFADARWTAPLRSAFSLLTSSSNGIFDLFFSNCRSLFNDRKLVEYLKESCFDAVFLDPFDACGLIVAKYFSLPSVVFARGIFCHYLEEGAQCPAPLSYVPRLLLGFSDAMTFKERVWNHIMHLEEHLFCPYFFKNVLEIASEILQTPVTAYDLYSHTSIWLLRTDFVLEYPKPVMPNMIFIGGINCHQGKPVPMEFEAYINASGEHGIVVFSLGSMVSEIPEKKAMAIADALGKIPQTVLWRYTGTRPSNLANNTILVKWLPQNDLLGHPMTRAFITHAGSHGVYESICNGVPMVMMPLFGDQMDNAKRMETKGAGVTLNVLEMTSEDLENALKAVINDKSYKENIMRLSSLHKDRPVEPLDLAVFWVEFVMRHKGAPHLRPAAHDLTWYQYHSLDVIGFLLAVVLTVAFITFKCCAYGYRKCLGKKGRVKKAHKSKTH

[12] = Drug metabolism in human kidney microsomes assessed as intrinsic clearance for drug glucuronidation per mg tissue in presence of BSA by LC-MS/MS method
[13] = Drug metabolism in human kidney microsomes assessed as drug glucuronidation in presence of 5 to 35 uM androsterone by LC-MS/MS method

Drug metabolism (Liver microsome [1]): metabolite_detected
Drug metabolism (Liver microsome [2]): metabolite_not_detected
KmH [3]: 6 µM
KmL [3]: 419.4 µM
Drug metabolism [4]: metabolite_not_detected
Drug metabolism [5]: metabolite_detected
Drug metabolism [6]: metabolite_detected
Km ([7]; read-out: KmH): 7.4 µM
Km ([7]; read-out: KmL): 1360 µM
CL [8]: 0.7 µL/min/g
VmaxH [9]: 696 pmol/min/g
VmaxL [9]: 5265 pmol/min/g
VmaxH (Liver microsome [10]): 137.9 pmol/min/g
VmaxL (Liver microsome [10]): 4904 pmol/min/g
Drug metabolism [11]: metabolite_detected
CL(high) [12]: 78.5 µL/min/mg
CL(low) [12]: 3.6 µL/min/mg
Drug metabolism [13]: metabolite_detected
Compound: CC1=NN(c2ccccc2)C(=O)C1 [EDARAVONE]
